# Patent US6943268B2 (priority 1999, dated 2005)
# Test system: L-selectin on neutrophils
# Assay type: cell-based, human
# Settings: not given
Compound,approximate concentration for 100% LOSS of L-selectin from cell surface,cell surface L-selectin released,effective concentrations for induction of L-selectin shedding [µM],induction of L-selectin shedding (in words)
"O=C(O)CI [Iodoacetate IA, Iodoacetate]",~300 uM-,–,–,–
CN(C)C(=O)/N=N/C(=O)N(C)C [Diamide],~1 mM-,–,–,–
"CCN(CC)C(=S)SSC(=S)N(CC)CC [Disulfiram (Antabuse), Disulfiram]",~50 uM-,–,–,–
O=S(=O)(F)Cc1ccccc1 [PMSF],~1 mM-,–,–,–
NC(=O)N=NC(N)=O [Azodicarbonamide],~1 mM-,–,–,–
"Cc1c(C)n2c(CBr)c(C)c(=O)n2c1=O [Monobromobimane mBBr, Monobromobimane]",~100 uM-,–,–,–
NC(=O)CI [Iodoacetamide],~10 mM-,–,–,–
"O=C(O)c1cc(SSc2ccc([N+](=O)[O-])c(C(=O)O)c2)ccc1[N+](=O)[O-] [DTNB, 5′,5′-dithio-bis(2-nitrobenzoic acid)]",~1 mM-,–,–,–
"CSCC[C@H](NC=O)C(=O)N[C@@H](CC(C)C)C(=O)N[C@@H](Cc1ccccc1)C(=O)O [fMLP, formyl-methionyl-leucyl-phenylalanine]",–,at least 90%,–,–
CN(C)CCCN1c2ccccc2Sc2ccc(Cl)cc21 [Chlorpromazine],~50 mM-,–,10 to 50,–
COc1cc(-c2ccc(-n3nc(-c4ccccc4)n[n+]3-c3ccc([N+](=O)[O-])cc3)c(OC)c2)ccc1-n1nc(-c2ccccc2)n[n+]1-c1ccc([N+](=O)[O-])cc1 [Nitroblue tetrazolium],~100 uM-,–,–,–
C1COCCO1 [Dioxane],–,–,–,itself induces L-selectin release
CCN1C(=O)C=CC1=O [N-ethylmaleimide],~250 uM-,–,–,–
COc1ccc(C(c2ccc(OC)cc2)C(Cl)(Cl)Cl)cc1 [Methoxychlor],~50 uM-,–,–,–
Protein Disulfide Isomerase,~20 ug/ml-,–,–,–
OO [Hydrogen peroxide],~150 uM-,–,–,–
Thioredoxin,~50 ug/ml-,–,–,–
O=Ic1ccccc1C(=O)O [Iodosobenzoate],~1 mM-,–,–,–
[Cl][Cd][Cl] [Cadmium (CdC12)],~1000 µM,–,–,–
"Cc1c(CBr)n2c(CBr)c(C)c(=O)n2c1=O [Dibromobimane bBBr, Dibromobimane]",~100 um-,–,–,–
[O-2].[O-2].[O-2].[Sb+3].[Sb+3] [Antimony (Sb203)],~50 µM,–,–,–
Clc1ccc(C(c2ccc(Cl)cc2)C(Cl)(Cl)Cl)cc1 [DDT],~50 uM-,–,–,–
O=[As]O[As]=O (stereo not drawn) [Arsenic (As203)],~50 µM,–,–,–
Thimerosal,~500 um-,–,–,–
O=S(=O)(O)c1cc(N=C=S)ccc1C=Cc1ccc(N=C=S)cc1S(=O)(=O)O [DIDS],~200 uM-,–,–,–

# Test system: L-selectin on lymphocytes
# Assay type: cell-based, human
# Settings: not given
Compound,response of lymphocytes (L-selectin shedding),time for lymphocytes to shed L-selectin [min]
"CSCC[C@H](NC=O)C(=O)N[C@@H](CC(C)C)C(=O)N[C@@H](Cc1ccccc1)C(=O)O [fMLP, formyl-methionyl-leucyl-phenylalanine]",do not respond,–
CCCCCCCCCCCCCC(=O)O[C@@H]1[C@@H](C)[C@@]2(O)[C@@H](C=C(CO)C[C@]3(O)C(=O)C(C)=C[C@@H]23)[C@@H]2C(C)(C)[C@]12OC(C)=O [PMA],–,~30

# Test system: Mac-1 (CD18/CD11b) on neutrophils
# Assay type: cell-based, human
# Settings: not given
row,Compound,increase of cell surface Mac-1 expression compared to the ice control
1,"CSCC[C@H](NC=O)C(=O)N[C@@H](CC(C)C)C(=O)N[C@@H](Cc1ccccc1)C(=O)O [fMLP, formyl-methionyl-leucyl-phenylalanine]",3-10 fold

# Test system: HIV
# Settings: chlorpromazine: at the concentration of Table I; cited from earlier work
row,Compound,HIV infectivity
1,NC(=O)N=NC(N)=O [Azodicarbonamide],"blocks HIV infectivity,"
